pIC50: −log10 of the molar value.
What was measured:
Format in all cases: functional
[1] = Selective index was evaluated from inhibitory concentrations of compound
[2] = Inhibitory effect on p24 production in HIV-infected peripheral blood mononuclear cells.; conditions: Homo sapiens
[3] = Compound was evaluated for cellular proliferation (on viability of peripheral blood mononuclear cells) using microculture tetrazolium assay (MTA).; conditions: Homo sapiens

Structure (SMILES)	Selectivity index [1]	pIC50 [2]	pIC50 [3]
S=C(NCCN1CCNCC1)Nc1ccc(Br)cn1	> 50000	8.70	< 4.00
Cc1cn([C@H]2C[C@H](N=[N+]=[N-])[C@@H](CO)O2)c(=O)[nH]c1=O [ZIDOVUDINE]	–	8.22	4.30
S=C(NCCN1CCCCC1)Nc1ccc(Br)cn1	> 100000	> 9.00	< 4.00
S=C(NCCc1ccccn1)Nc1ccc(Br)cn1 [TROVIRDINE]	> 10000	8.15	< 4.00

From ChEMBL document CHEMBL1130933, “Structure-based design of N-[2-(1-piperidinylethyl)]-N'-[2-(5-bromopyridyl)]-thiourea and N-[2-(1-piperazinylethyl)]-N'-[2-(5-bromopyridyl)]-thiourea as potent non-nucleoside inhibitors of HIV-1 reverse transcriptase” (Bioorg Med Chem Lett, 1998)
